Measurements as given in patent US6833372B2, “Non-peptide GnRH agents, Pharmaceutical compositions, and methods for their use” (Pfizer, Inc., priority 2002, dated 2004).
Several values for one entry are separate records, joined by “and”; a condition that tells them apart may be missing. Equal entries are not always repeated.

Experiments:
[1] = target: T1, human GnRH receptors (Homo sapiens, UniProt P30968); assay: Radioligand binding: inhibition of 125I-GnRH-A binding to human GnRH receptor membranes; details: HEK 293 cell membranes
T1 construct: expressed in transfected cells; host or cells: HEK 293 cells, stably transfected; membranes
T1 sequence (P30968 1-328): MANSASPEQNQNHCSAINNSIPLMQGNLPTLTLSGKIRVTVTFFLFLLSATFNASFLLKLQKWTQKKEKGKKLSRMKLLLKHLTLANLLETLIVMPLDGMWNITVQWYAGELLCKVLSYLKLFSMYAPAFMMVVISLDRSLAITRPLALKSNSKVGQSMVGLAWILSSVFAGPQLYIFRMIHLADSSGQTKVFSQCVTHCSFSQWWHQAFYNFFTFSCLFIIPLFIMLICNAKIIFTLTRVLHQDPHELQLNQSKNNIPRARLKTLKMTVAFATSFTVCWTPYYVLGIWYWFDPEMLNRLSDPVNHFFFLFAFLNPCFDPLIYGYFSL
In short: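 Membranes from rat pituitaries, or HEK 293 cells stably expressing mouse or human receptor, incubated 1 hour at room temperature with ~0.04-0.06 nM radioligand (HEPES pH 7.4, EDTA, MgCl2, BSA) and competitor at 0.1-10,000 nM. Bound ligand collected by GF/C filtration and counted; Ki derived from IC50 by Cheng-Prusoff.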

[2] = target: T2, rat GnRH receptor (Rattus norvegicus, UniProt P30969); assay: Radioligand binding: inhibition of 125I-GnRH-A binding to rat GnRH receptor (rat pituitary membranes); details: read-out: Ki (nM), Inhibition Binding of 125I-GnRH-A to GnRH Receptors
T2 construct: or rat pituitaries (Pel Freez Biologicals, Rogers, Ark.) were homogenized; tissue Pel Freez Biologicals; host or cells: rat pituitaries (membrane preparation)
T2 sequence (P30969 1-327): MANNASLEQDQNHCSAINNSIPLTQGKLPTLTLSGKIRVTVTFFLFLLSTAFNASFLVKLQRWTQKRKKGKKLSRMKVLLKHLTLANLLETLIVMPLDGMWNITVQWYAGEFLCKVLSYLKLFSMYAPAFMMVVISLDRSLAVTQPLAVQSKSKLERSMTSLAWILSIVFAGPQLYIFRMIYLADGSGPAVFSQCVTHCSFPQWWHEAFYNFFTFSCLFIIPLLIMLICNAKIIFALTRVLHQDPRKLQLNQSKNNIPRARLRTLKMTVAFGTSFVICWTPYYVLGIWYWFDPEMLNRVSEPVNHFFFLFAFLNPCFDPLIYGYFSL
Experimental: HEK 293 cells containing mouse or human receptors, or rat pituitaries (Pel Freez Biologicals, Rogers, Ark.) were homogenized in buffer A containing: 50 mM Tris (pH 7.4), 0.32 M sucrose, 2 mM EGTA, 1 mM PMSF, 5 μg/ml aprotinen, 5 μg/ml Pepstatin A, and 1 μg/ml leupeptin. Homogenized cells were centrifuged at 4° C. at 20,000×g for 25 minutes, re-suspended in buffer A and re-centrifuged at 4° C. at 20,000×g for an additional 25 minutes. Total membrane protein was determined with a BCA kit (Pierce, Rockford, Ill.). Membranes were stored at −70° C. at a final membrane protein concentration of approximately 5 mg/ml.
The radioiodinated agonist analog of GnRH, [des-Gly^10,D-Ala^6]GnRH ethylamide (^125I-GnRH-A), was used as the radioligand. […] The reaction mixture was vortexed and incubated for 1 minute at room temperature. After one minute, the mixture was vortexed and allowed to incubate for an additional minute. 2 ml of 0.5 M acetic acid/1% BSA was added to the reaction tube and the mixture was added to a C18 Sep-Pak cartridge. The cartridge was washed with subsequent washes of 5 ml H2O and 5 ml 0.5 M acetic acid and then eluted with 5×1 ml of 60% CH3CN/40% 0.5 M acetic acid. The eluate was diluted with 3× volume of HPLC buffer A (0.1% TFA in H2O) and loaded onto a C18 column. The iodinated product was eluted over 20-25 min with a gradient of 25-100% CH3CN containing 0.1% TFA. The radioactive fractions (750 μl/fraction) were collected into clean polypropylene tubes containing 100 μl of 10% BSA. Fractions were assessed for biological activity by radioligand binding. Specific activity of the radioligand was approximately 2200 Ci/mmol.
Membranes were diluted to 0.01-0.5 mg/ml (depending upon the species of receptor) with assay buffer containing 50 mM HEPES (pH 7.4), 1 mM EDTA, 2.5 mM MgCl2, and 0.1% BSA. Membranes (diluted to utilize similar receptor numbers between assays) were incubated with approximately 0.04-0.06 nM ^125I-GnRH-A in the presence or absence of competing agents (0.1-10,000 nM) in a total volume of 200 μl in 96-well polypropylene plates for 1 hour at room temperature. Assays were stopped by rapid filtration onto 96-well GF/C filters soaked in 0.1% polyethylenimine (PEI) utilizing a Packard 96-well cell harvester. Filters were washed three times with ice-cold PBS (50 mM NaPO4, 0.9% NaCl, 2 mM MgCl2, and 0.02% NaN3, pH 7.4). 35 μl of scintillation cocktail was added to each filter well and filters were counted on a Packard Topcount. Control dose-response curves were generated to GnRH (0.1 nM-100 nM) in each competition binding experiment. Ki values were calculated from IC50 values according to Cheng et al., Biochemical Pharmacol. 22: 3099-3108, 1973. [formula]

[3] = In vitro metabolism: disappearance of parent compound in human liver microsomes; assay type: in vitro ADME; details: 5 uM compound, 0.5 mg/ml protein, 2 mM NADPH, 30 minutes 37° C.
Experimental: (§1) Human, rat, dog, and monkey liver microsomes were isolated by differential centrifugation. Specimens of human liver were obtained from the International Institute for the Advancement of Medicine (Scranton, Pa.). The disappearance of the parent compound was studied in a mixture containing 5 uM compound, 0.5 mg/ml microsomal protein, and 2 mM NADPH in 50 mM K phosphate buffer, pH 7.4. Samples were incubated for 30 minutes at 37° C. The reaction was terminated by the addition of acetonitrile and compounds analyzed by LC-MS as described above.

[4] = In vitro metabolism: disappearance of parent compound in rat liver microsomes (male, female); assay type: in vitro ADME; details: 5 uM compound, 30 minutes 37° C.; for Fem. Rat (FR) % rem. 30′: female rat liver microsomes; for Male Rat (MR) % rem. 30′: male rat liver microsomes
Experimental: as §1

[5] = In vitro metabolism: disappearance of parent compound in dog liver microsomes; assay type: in vitro ADME; details: 5 uM compound, 30 minutes 37° C.
Experimental: as §1

[6] = In vitro metabolism: disappearance of parent compound in monkey liver microsomes; assay type: in vitro ADME; details: 5 uM compound, 30 minutes 37° C.
Experimental: as §1

Compound | Ki [1] | Ki [2] | Human % rem. 30′ [3] | Fem. Rat (FR) % rem. 30′ [4] | Male Rat (MR) % rem. 30′ [4] | Dog % rem. 30′ [5] | Monkey % rem. [6]
COc1nc(NCCN(C)C(=O)c2ccc(Cc3cc4c(cc3C)C(C)(C)OC4(C)C)o2)nc(OC)c1NC(=O)c1ccc(Cc2cc3c(cc2C)C(C)(C)OC3(C)C)o1 [Example D2] | 14 nM | 11 nM | 76% and 83% | 84% and 82% |  |  | 
COc1nc(NCCN2CCOCC2)nc(OC)c1NC(=O)c1ccc(Cc2cc3c(cc2C)C(C)(C)OC3(C)C)o1 [Example D4, N-{4,6-dimethoxy-2-[(2-morpholin-4-ylethyl)amino]pyrimidin-5-yl}-5-[(1,1,3,3,6-pentamethyl-1,3-dihydro-2-benzofuran-5-yl)methyl]-2-furamide] | 6 nM | 4.1 nM | 83% | 76% | 38% | 34% | 2%
COc1nc(NCCN(C)C)nc(OC)c1NC(=O)c1ccc(Cc2cc3c(cc2C)C(C)(C)OC3(C)C)o1 [Example D10, N-(2-{[2-(Dimethylamino)ethyl]amino}-4,6-dimethoxypyrimidin-5-yl)-5-[(1,1,3,3,6-pentamethyl-1,3-dihydro-2-benzofuran-5-yl)methyl]-2-furamide] | 7.3 nM | 2.6 nM | 77% | 79% | 66% | 66% | 28%
COc1nc(NCCCCN(C)C)nc(OC)c1NC(=O)c1ccc(Cc2cc3c(cc2C)C(C)(C)OC3(C)C)o1 [Example D11, N-(2-{[4-(Dimethylamino)butyl]amino}-4,6-dimethoxy-pyrimidin-5-yl)-5-[(1,1,3,3,6-pentamethyl-1,3-dihydro-2-benzofuran-5-yl)methyl]-2-furamide] | 1.1 nM | 0.5 nM | 62% | 56% | 42% | 56% | 20%
CNCCCNc1nc(OC)c(NC(=O)c2ccc(Cc3cc4c(cc3C)C(C)(C)OC4(C)C)o2)c(OC)n1 [Example D60, N-(4,6-Dimethoxy-2-{[3-(methylamino)propyl]amino}-5-pyrimidinyl)-5-[(1,1,3,3,6-pentamethyl-1,3-dihydro-2-benzofuran-5-yl)methyl]-2-furamide] | 1 nM | 0.32 nM |  |  |  |  | 
COc1nc(NCc2c(F)cccc2F)nc(OC)c1NC(=O)c1ccc(Cc2cc3c(cc2C)C(C)(C)OC3(C)C)o1 [Example D73, N-{2-[(2,6-difluorobenzyl)amino]-4,6-dimethoxypyrimidin-5-yl}-5-[(1,1,3,3,6-pentamethyl-1,3-dihydro-2-benzofuran-5-yl)methyl]-2-furamide] | 4 nM | 2.6 nM |  |  |  |  | 
COCCNc1nc(OC)c(NC(=O)c2ccc(Cc3cc4c(cc3C)C(C)(C)OC4(C)C)o2)c(OC)n1 [Example D74] | 3 nM | 1.1 nM |  |  |  |  | 

Results, then the molecule that gave them:

Ki [1] | Ki [2] | Human % rem. 30′ [3] | Fem. Rat (FR) % rem. 30′ [4] | Male Rat (MR) % rem. 30′ [4] | Dog % rem. 30′ [5] | Monkey % rem. [6] | Compound
1.2 nM | 0.86 nM | 77% | 90% | 74% | 77% | 8% | COc1nc(NCCN2CCCCC2)nc(OC)c1NC(=O)c1ccc(Cc2cc3c(cc2C)C(C)(C)OC3(C)C)o1 [Example D6, N-{4,6-Dimethoxy-2-[(2-piperidin-1-ylethyl)amino]pyrimidin-5-yl}-5-[(1,1,3,3,6-pentamethyl-1,3-dihydro-2-benzofuran-5-yl)methyl]-2-furamide]
13 nM | 16 nM |  |  |  |  |  | COc1nc(NCCCN(C)C)nc(OC)c1NC(=O)c1ccc(Cc2c(C)cc(C)c3c2OCC3(C)C)o1 [Example H4, N-(2-{[3-(Dimethylamino)propyl]amino}-4,6-dimethoxypyrimidin-5-yl)-5-[(3,3,4,6-tetramethyl-2,3-dihydro-1-benzofuran-7-yl)methyl]-2-furamide]
11 nM | 8.2 nM |  |  |  |  |  | COc1nc(NCCCN2CCN(C)CC2)nc(OC)c1NC(=O)c1ccc(Cc2c(C)cc(C)c3c2OCC3(C)C)o1 [Example H5]
12 nM | 12 nM |  |  |  |  |  | COc1nc(NCCCN2CCOCC2)nc(OC)c1NC(=O)c1ccc(Cc2c(C)cc(C)c3c2OCC3(C)C)o1 [Example H6, N-{4,6-Dimethoxy-2-[(3-morpholin-4-ylpropyl)amino]-pyrimidin-5-yl}-5-[(3,3,4,6-tetramethyl-2,3-dihydro-1-benzofuran-7-yl)methyl]-2-furamide]
27 nM | 26 nM |  |  |  |  |  | COc1nc(NCCCN2CCOCC2)nc(OC)c1NC(=O)c1ccc(Cc2c(C)cc3c(c2C)C(C)(C)CCO3)o1 [Example I1, N-{4,6-Dimethoxy-2-[(3-morpholin-4-ylpropyl)amino]pyrimidin-5-yl}-5-[(4,4,5,7-tetramethyl-3,4-dihydro-2H-chromen-6-yl)methyl]-2-furamide]
24 nM | 16 nM |  |  |  |  |  | COc1nc(NCCCN2CCN(C)CC2)nc(OC)c1NC(=O)c1ccc(Cc2c(C)cc3c(c2C)C(C)(C)CCO3)o1 [Example I2, N-(4,6-Dimethoxy-2-{[3-(4-methylpiperazin-1-yl)propyl]amino}pyrimidin-5-yl)-5-[(4,4,5,7-tetramethyl-3,4-dihydro-2H-chromen-6-yl)methyl]-2-furamide]
36 nM | 22 nM |  |  |  |  |  | COc1nc(NCCCN(C)C)nc(OC)c1NC(=O)c1ccc(Cc2c(C)cc3c(c2C)C(C)(C)CCO3)o1 [Example I3, N-(2-{[3-(Dimethylamino)propyl]amino}-4,6-dimethoxypyrimidin-5-yl)-5-[(4,4,5,7-tetramethyl-3,4-dihydro-2H-chromen-6-yl)methyl]-2-furamide]
